Literature values, collected in patent US6077934A (priority 1998, dated 2000).

System: Swiss Webster mice
Settings: mouse, in vivo

In the case of GCX1 X2 EPWC [contryphan-R], the “symptomatology after intracranial injection” value is listed as “"stiff-tail syndrome"”.
